Patent US20200325127A1, “PYRIDIN-3-YL ACETIC ACID DERIVATIVES AS INHIBITORS OF HUMAN IMMUNODEFICIENCY VIRUS REPLICATION” (priority 2016, published 2020)

Tested on: NL-RLuc virus
Test: Inhibition of HIV replication (NL-RLuc luciferase reporter virus in MT-2 cells)
Assay type: cell-based
Settings: Human immunodeficiency virus 1, MT2, 120 h, read-out: EC50 μM
Excerpt: Inhibition of HIV replication: A recombinant NL-RLuc proviral clone was constructed in which a section of the nef gene from NL4-3 was replaced with the Renilla Luciferase gene. This virus is fully infectious and can undergo multiple cycles of replication in cell culture. In addition, the luciferous reporter provides a simple and easy method for quantitating the extent of virus growth and consequently, the antiviral activity of test compounds. The plasmid pNLRLuc contains the proviral NL-Rluc DNA cloned into pUC18 at the PvuII site. The NL-RLuc virus was prepared by transfection of 293T cells with the plasmid pNLRLuc. Transfections were performed using the LipofectAMINE PLUS kit from Invitrogen (Carlsbad, Calif.) according to the manufacturer and the virus generated was titered in MT-2 cells. For susceptibility analyses, the titrated virus was used to infect MT-2 cells in the presence of compound, and after 5 days of incubation, cells were processed and quantitated for virus growth by the amount of expressed luciferase. Assay media was RPMI 1640 supplemented with 10% heat inactivated fetal bovine serum (FBS), 100 units/ml penicillin G/100 units/ml streptomycin, 10 mM HEPES buffer pH 7.55 and 2 mM L-glutamine. The results from at least 2 experiments were used to calculate the EC50 values. Luciferase was quantitated using the Dual Luciferase kit from Promega (Madison, Wis.). Susceptibility of viruses to compounds was determined by incubation in the presence of serial dilutions of the compound. The 50% effective concentration (EC50) was calculated by using the exponential form of the median effect equation where (Fa)=1/[1+(ED50/drug conc.)^m](Johnson V A, Byington R T. Infectivity Assay. In Techniques in HIV Research. ed. Aldovini A, Walker B D. 71-76. New York: Stockton Press. 1990). Activity equal to A refers to a compound having an EC50≤100 nM, while B and C denote compounds having an EC50 between 100 nM and 1 uM (B) or >1 uM (C).

First: Cc1nc(C)c([C@H](OC(C)(C)C)C(=O)O)c(N2CCC(C)(C)CC2)c1-c1ccc2c(c1)CCN(c1nccc3ccccc13)C2 [Compound 78]
Second: Cc1nc(C)c([C@H](OC(C)(C)C)C(=O)O)c(N2CCC(C)(C)CC2)c1-c1ccc2c(c1)CCN(c1nc(C(F)(F)F)cc3ccccc13)C2 [Compound 79]
The EC50 of the first is 2.3-fold lower: 0.003 µM for the first, 0.007 µM for the second.

First: COc1ccc2c(N3CCc4cc(-c5c(C)nc(C)c([C@H](OC(C)(C)C)C(=O)O)c5N5CCC(C)(C)CC5)ccc4C3)ncnc2c1 [Compound 80]
Second: COc1ccc2ncnc(N3CCc4cc(-c5c(C)nc(C)c([C@H](OC(C)(C)C)C(=O)O)c5N5CCC(C)(C)CC5)ccc4C3)c2c1 [Compound 81]
The EC50 of the first is 2-fold lower: 0.001 µM for the first, 0.002 µM for the second.

Going from `Cc1nc(C)c([C@H](OC(C)(C)C)C(=O)O)c(N2CCC(C)(C)CC2)c1-c1ccc2c(c1)CCN(c1nc(N(C)C)c3ccccc3n1)C2` [Compound 82] to `Cc1nc2ccccc2nc1N1CCc2cc(-c3c(C)nc(C)c([C@H](OC(C)(C)C)C(=O)O)c3N3CCC(C)(C)CC3)ccc2C1` [Compound 87], the EC50 rises from 0.001 µM to 0.01 µM (10-fold).

`COc1cc2ncnc(N3CCc4cc(-c5c(C)nc(C)c([C@H](OC(C)(C)C)C(=O)O)c5N5CCC(C)(C)CC5)ccc4C3)c2cc1OC` [Compound 84] and `Cc1nc(C)c([C@H](OC(C)(C)C)C(=O)O)c(N2CCC(C)(C)CC2)c1-c1ccc2c(c1)CCN(c1ncnc3ccc(F)cc13)C2` [Compound 85] are the same in EC50: 0.002 µM for the first, 0.002 µM for the second.

Going from `Cc1nc(C)c([C@H](OC(C)(C)C)C(=O)O)c(N2CCC(C)(C)CC2)c1-c1ccc2c(c1)CCN(c1nccc3ncncc13)C2` [Compound 86] to `Cc1nc(C)c([C@H](OC(C)(C)C)C(=O)O)c(N2CCC(C)(C)CC2)c1-c1ccc2c(c1)CCN(c1ncnc3cc(Cl)ccc13)C2` [Compound 89], the EC50 rises from 0.001 µM to 0.004 µM (4-fold).

With `Cc1nc(C)c([C@H](OC(C)(C)C)C(=O)O)c(N2CCC(C)(C)CC2)c1-c1ccc2c(c1)CCN(c1ccnc3cccnc13)C2` [Compound 88] the EC50 was 0.001 µM.
